{"source": "patent US5094944A", "about": "“Flourescent aquatic bioassay and procedure” (priority 1990, dated 1992)", "key": {"Daphnia magna [1]": {"test_system": "Daphnia magna", "experiment": "whole plant or invertebrate", "type": "in vivo", "conditions": "for EC50: Daphnia magna, read-out: Mean EC50", "protocol": "Determination of the EC50 Value in Test Tubes\nUsing Daphnia magna as a test species a series of test concentrations of the standard reference toxicant CuSO4 was established in triplicate. Each replicate consisted of 10 ml of test media in a 15 ml glass test tube. Five organisms were placed in each tube. The tubes were then maintained for a period of one hour at ambient room environmental conditions. At the end of one hour 0.4 mg of the substrate 4-Methylumbelliferyl b-D-galactoside (MUF) was added. Fifteen minutes after the addition of the MUF the test tubes were taken into a dark room. […] A record was made of the number of strongly fluorescing Daphnia magna bodies. […] These organisms were then compared to each of the other triplicate concentrations.\nThe data was then analyzed statistically by conventional methods (Methods for Measuring the Acute Toxicity of Effluents to Freshwater and Marine Organisms (Third Edition) EPA/600/4-85/013).\n11 standard reference toxicants were then analyzed by the above method. […]"}, "Daphnia magna [2]": {"test_system": "Daphnia magna", "experiment": "Daphnia magna fluorescence bioassay in a multiwell plate (Example 1)", "type": "in vivo", "parameters": "key to fluorescence of Daphnia magna: fluorescing; nonfluorescing", "conditions": "for fluorescence of Daphnia magna / survival (all alive): replicates #1, #2, #3", "from_the_text": "Determination of an EC50 Value in a Multiwell Plate\nThe objective of this example was to determine the EC50 value and its confidence limits for the test substance copper sulfate ([…]) to the common water flea, Daphnia magna.\nUsing the invertebrate Daphnia magna as a test species a series of test concentratins are established with the standard reference toxicant copper sulfate, CuSo4, in triplicate at the following concentrations:\nOne ml of each of the above CuSO4 solutions was pippetted into a mutiwell plate (3 replications per concentration, 1 ml per replicate). To each of 18 wells in the plate 5 Daphnia magna were added and exposed to the test concentrations for a period of five minutes. Then to each of the 18 wells, with the exception of 0-B 1, 2 and 3, 1.0 mg of 4-Methylumbelliferyl b-D-Galactoside (MUF) was dropped onto the surface of each well. The powder settled to the bottom of each well. After 1 minute of exposure, each sample was read. An ultra-violet light (black light) was held over the multiwell in a dark room. The fluorescent intensity of Controls 0-A ppm (maximum intensity) and Controls 0-B ppm (minimum intensity) were utilized as baselines to compare the effects of test concentrations 0.01 through 10.0 ppm CuSO4."}, "[3]": {"conditions": "Table 2, three tests at different times per toxicant, 1 hour exposure, 15 minutes after MUF"}}}
{"compound": "c1ccccc1", "note": "[Benzene]", "values": [{"measurement": "EC50", "setting": "Daphnia magna [1]; 1 h", "value": 6.5, "unit": "µg/mL"}]}
{"compound": "[Cd]", "note": "[Cd, cadmium]", "values": [{"measurement": "Mean EC50", "setting": "Daphnia magna [1]; [3]", "value": 0.41, "unit": "ppm"}]}
{"compound": "[Cr]", "note": "[Cr, chromium]", "values": [{"measurement": "Mean EC50", "setting": "Daphnia magna [1]; [3]", "value": 3.7, "unit": "ppm"}]}
{"compound": "[Cu]", "note": "[Cu, copper]", "values": [{"measurement": "EC50 for Cu with Daphnia magna", "setting": "Daphnia magna [1]; test tubes, 1 hour exposure, 15 minutes after MUF", "value": 0.23, "unit": "ppm"}]}
{"compound": "C=O", "note": "[Formaldehyde]", "values": [{"measurement": "EC50", "setting": "Daphnia magna [1]; 1 h", "value": 39.2, "unit": "µg/mL"}]}
{"compound": "CCCCCCCCCCCCOS(=O)(=O)O", "note": "[NaLS]", "values": [{"measurement": "EC50", "setting": "Daphnia magna [1]; [3]", "value": 74.1, "unit": "µg/mL"}]}
{"compound": "Oc1c(Cl)c(Cl)c(Cl)c(Cl)c1Cl", "note": "[NaPCP]", "values": [{"measurement": "EC50", "setting": "Daphnia magna [1]; [3]", "value": 1, "unit": "µg/mL"}]}
{"compound": "Oc1ccccc1", "note": "[Phenol]", "values": [{"measurement": "EC50", "setting": "Daphnia magna [1]; 1 h", "value": 37.1, "unit": "µg/mL"}]}
{"compound": "Cc1ccccc1", "note": "[Toluene]", "values": [{"measurement": "EC50", "setting": "Daphnia magna [1]; 1 h", "value": 6.3, "unit": "µg/mL"}]}
{"compound": "[Zn]", "note": "[Zn, zinc]", "values": [{"measurement": "Mean EC50", "setting": "Daphnia magna [1]; [3]", "value": 4.3, "unit": "ppm"}]}
{"compound": "copper sulfate [CuSO4]", "values": [{"measurement": "fluorescence of Daphnia magna", "setting": "Daphnia magna [2]; 0.01 ppm", "value": "f"}, {"measurement": "survival (all alive)", "setting": "Daphnia magna [2]; 0.01 ppm", "value": "all alive"}, {"measurement": "fluorescence of Daphnia magna", "setting": "Daphnia magna [2]; 0.1 ppm", "value": "f"}, {"measurement": "survival (all alive)", "setting": "Daphnia magna [2]; 0.1 ppm", "value": "all alive"}, {"measurement": "fluorescence of Daphnia magna", "setting": "Daphnia magna [2]; 1.0 ppm", "value": "f"}, {"measurement": "survival (all alive)", "setting": "Daphnia magna [2]; 1.0 ppm", "value": "all alive"}, {"measurement": "sublethal adverse affect detected", "setting": "Daphnia magna [2]; 10.0 ppm, in less than 10 minutes", "value": "sublethal adverse affect"}, {"measurement": "fluorescence of Daphnia magna", "setting": "Daphnia magna [2]; 10.0 ppm", "value": "nf"}, {"measurement": "survival (all alive)", "setting": "Daphnia magna [2]; 10.0 ppm", "value": "all alive"}, {"measurement": "EC50", "setting": "Daphnia magna [2]; multiwell plate, 5 minutes exposure, MUF substrate, read after 1 minute", "value": 3.2, "unit": "ppm"}]}
{"compound": "mercury [Hg]", "values": [{"measurement": "Mean EC50", "setting": "Daphnia magna [1]; [3]", "value": 0.02, "unit": "ppm"}]}
